In patent US11345885B2, “Agent for inducing callus and method for inducing callus” (RIKEN, priority 2014, dated 2022):

How the values were obtained:
tomato seed (Micro-Tom) = assay: Fipexide activity test using other plants: tomato seed in fipexide medium; format: in vivo
Method: (§1) As with the case of Arabidopsis germination conditions, plants were cultured in a fipexide medium with the use of sterilized seeds.

[1] = tested on: root organ of Arabidopsis (Columbia); assay: Callus induction and redifferentiation by treatment with fipexide (cut root organ); format: cell-based; details: fipexide 45 μM for 2 weeks
Method: The root organ of Arabidopsis (Columbia) was cut, treated in a ½ MS medium supplemented with fipexide at 45 μM for 2 weeks to induce a callus, and then cultured in a redifferentiation medium (auxin/cytokinine). […] In contrast, the root organ of Arabidopsis (Columbia) was cut and then cultured in the redifferentiation medium without callus induction. As a result, redifferentiation was not observed (FIG. 2B).

[2] = tested on: Arabidopsis (Columbia) wild-type seeds; assay: Morphological observation of Arabidopsis (Columbia) by treatment with fipexide (seeds sowed in 1/2 MS medium); format: in vivo; details: for callus formation (site): 1/2 MS medium, seeds
Method: Wild-type seeds of Arabidopsis (Columbia) were sowed in a ½ MS medium supplemented with fipexide at 0, 15, 30, or 45 μM, and morphological observation was conducted.

[3] = tested on: stalks and roots of wild-type Populus; assay: Fipexide callus induction and redifferentiation in stalks and roots of Populus; format: cell-based
Method: The induced callus was cultured in a redifferentiation medium (i.e., a MS medium (0.9% agarose and 1.5% sucrose) containing auxin (indoleacetic acid) at 0.15 mg/1 and cytokinine (N^6-2-isopentenyladenine) at 0.5 mg/l or a ½ MS medium (0.9% Phytoagar (agarose for plants) and 0.2% sucrose) containing 3-indolebutyric acid (IBA) at 0.1 mg/l and 6-benzylaminopurine (BAP) at 0.2 mg/l).
The conditions of the aseptic stalk (which is not the hypocotyl) and the root organ sections of wild-type Populus 30 days after cutting in the presence of fipexide are shown at the center of FIG. 7, and the conditions thereof 30 days after the medium was exchanged with a fresh redifferentiation medium are shown on the right of FIG. 7.

[4] = tested on: cucumber seed (Natsu Suzumi); assay: Fipexide activity test using other plants: cucumber seed in fipexide medium; format: in vivo
Method: as §1

soybean seed (Tsurunoko) = assay: Fipexide activity test using other plants: soybean seed in fipexide medium; format: in vivo
Method: as §1

[5] = tested on: wild-type rice (Nipponbare); assay: Fipexide activity test using other plants: rice seeds in fipexide medium; format: in vivo
Method: as §1

[6] = tested on: Populus stalk samples (Populus tremula x tremuloides T89); assay: Transformation by the Agrobacterium method utilizing callus induction caused by fipexide; format: cell-based
Method: Under general callus induction conditions for Populus, callus induction was conducted with the use of fipexide instead of auxin/cytokinine, and whether or not Agrobacterium-infected callus was transformed was examined. The GUS gene was introduced into a pH35GS binary vector comprising a Gateway cassette (Kubo M. et al., Genes & Dev., 19, 1855-1860, 2005) (manufactured by […] Innovations Inc.; Production code: IN3-VEC17) using the Gateway system, and the resulting binary vector was used for the Agrobacterium method, so as to confirm infection. 1. From young plants of aseptically cultured Populus (Populus tremula x tremuloides […]) that had been grown in pots, stalk samples (length: 5 mm) were cut. 2. The stalk samples were cultured in the presence of Agrobacterium (for 3 days, in the dark, at 22° C.). 3. After Agrobacterium was washed away, the stalk samples were placed on MS1 medium or modified MS1 medium (containing 30 μM fipexide instead of 3-indolebutyric acid (IBA) and 6-benzylaminopurine (BAP)) and cultured at 25° C. 4. […] Two months after the initiation of callus induction culture, 23 calluses were fixed in 90% (w/w) acetone at -30° C. overnight, the samples were washed twice with 50 mM PBS buffer (pH 7.0), and the samples were subjected to incubation in GUS substrate solution at 37° C. for 15 minutes for staining.

[7] = tested on: hypocotyl of Arabidopsis (Columbia); assay: Functional analysis of putative fipexide metabolites, morphological observation of cut hypocotyl on 1/2 MS medium; format: cell-based; details: for callus induction activity: 0, 5, 15, 30, 45 or 60 μM in 1/2 MS medium, hypocotyl
From the text: Fipexide is a compound formed by an amide bond between 4-chlorophenoxyacetic acid and 1-piperonylpiperazine, and fipexide is deduced to be non-enzymatically hydrolyzed in a plant. Thus, treatment with 4-chlorophenoxyacetic acid or 1-piperonylpiperazine alone or treatment with both thereof was attempted.
Arabidopsis (Columbia) was allowed to germinate under weak lighting conditions for 7 days, the hypocotyl cut therefrom was placed on a ½ MS medium supplemented with 4-chlorophenoxyacetic acid and/or 1-piperonylpiperazine at 0, 5, 15, 30, 45, or 60 μM, and morphological observation thereof was conducted.

[8] = tested on: germinated Eucalyptus seeds; assay: Fipexide activity test using other plants: Eucalyptus seeds in fipexide medium; format: in vivo
Method: as §1

Arabidopsis hypocotyl = assay: Comparison of fipexide with conventional technique (2,4-D/kinetin) for callus induction; format: cell-based; details: fipexide 45 μM vs 2,4-dichlorophenoxyacetic acid 2.26 μM and kinetin 0.465 μM, constant lighting, 87 days
Method: Callus induction in Arabidopsis that was carried out at the optimized auxin/cytokinine concentration (i.e., 2,4-dichlorophenoxyacetic acid at 2.26 μM and kinetin at 0.465 μM) was compared with callus induction that was carried out at the fipexide concentration of 45 μM.

[9] = tested on: African violet leaf explants; details: cited from earlier work

SMILES: O=C(COc1ccc(Cl)cc1)N1CCN(Cc2ccc3c(c2)OCO3)CC1 [fipexide, 1-[(p-chlorophenoxy)acetyl]-4-piperonylpiperazine]
- callus induction (tomato seed (Micro-Tom)): callus induction was observed
- redifferentiation in redifferentiation medium (auxin/cytokinine) after callus induction [1]: redifferentiation was observed
- callus formation (site) ([2]; fipexide 15 μM (low concentration)): callus formation was mainly observed in the root
- callus formation (site) ([2]; fipexide 45 μM (high concentration)): in the shoot apex
- callus formation in the root ([2]; fipexide at high concentration): suppressed
- redifferentiation of the induced callus in redifferentiation medium ([3]; MS medium with indoleacetic acid 0.15 mg/l and N6-2-isopentenyladenine 0.5 mg/l, or 1/2 MS medium with IBA 0.1 mg/l and BAP 0.2 mg/l): redifferentiation was observed
- callus induction ([3]; stalks and roots of Populus in fipexide medium): callus induction was observed in the stalks and the roots
- callus induction [4]: callus induction was observed
- callus induction (soybean seed (Tsurunoko)): callus induction was observed
- callus formation ([5]; fipexide 45 μM, 30 days after seed germination): Callus formation was observed
- callus induction ([5]; germinated rice seeds, fipexide medium): callus induction was observed
- GUS activity in calluses (transformation) ([6]; 23 calluses, two months after initiation of callus induction culture, 30 μM fipexide): GUS activity was observed in all samples
- callus formation on the fourth week ([6]; Agrobacterium-treated stalk samples, 25° C., modified MS1 medium with 30 μM fipexide vs conventional MS1 medium): many calluses were formed
- callus induction activity [7]: callus induction activity was observed
- callus induction [8]: callus induction was observed
- callus induction efficiency compared with optimized auxin/cytokinine (Arabidopsis hypocotyl): higher than that attained at the optimized auxin/cytokinine concentration

SMILES: c1cc2c(cc1CN1CCNCC1)OCO2 [1-piperonylpiperazine, 1-(3,4-methylenedioxybenzyl)piperazine]
- callus induction activity [7]: callus induction activity was not observed
- leaf area ([7]; treatment alone): enlarged
- number and length of lateral roots ([7]; treatment alone): increased

SMILES: O=C(O)COc1ccc(Cl)cc1 [4-chlorophenoxyacetic acid]
- callus formation efficiency [9]: not high
- number of days required from implanting of explants to callus formation, and formation of adventitious shoots and adventitious roots ([9]; treatment at a particular concentration): reduced
- callus induction activity [7]: callus induction activity was observed
